Assay results published in patent publication US20250230193A1, “CYCLIC COMPOUND HAVING SELECTIVE KRAS INHIBITORY EFFECT ON HRAS AND NRAS” (CHUGAI SEIYAKU KABUSHIKI KAISHA, priority 2022, published 2025).

How the values were obtained:
[1] = molecular target: GDP-bound NRAS wild-type protein (Homo sapiens, UniProt P01111); assay: Binding to NRAS by surface plasmon resonance (SPR), Single Cycle Kinetics; details: KD ratio, GDP-bound NRAS wild-type vs GDP-bound KRAS wild-type, SPR
[2] = molecular target: GDP-bound HRAS wild-type protein (Homo sapiens, UniProt P01112); assay: Binding to HRAS by surface plasmon resonance (SPR), Single Cycle Kinetics; details: KD ratio, GDP-bound HRAS wild-type vs GDP-bound KRAS wild-type, SPR
Chain of GDP-bound HRAS wild-type protein (P01112 whole entry): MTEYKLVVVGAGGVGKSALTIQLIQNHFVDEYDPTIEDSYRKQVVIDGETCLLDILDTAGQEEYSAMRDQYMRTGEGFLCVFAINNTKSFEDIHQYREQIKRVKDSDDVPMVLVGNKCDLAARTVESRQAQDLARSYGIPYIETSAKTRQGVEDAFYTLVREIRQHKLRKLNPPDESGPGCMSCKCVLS

Chain of GDP-bound NRAS wild-type protein (P01111 whole entry): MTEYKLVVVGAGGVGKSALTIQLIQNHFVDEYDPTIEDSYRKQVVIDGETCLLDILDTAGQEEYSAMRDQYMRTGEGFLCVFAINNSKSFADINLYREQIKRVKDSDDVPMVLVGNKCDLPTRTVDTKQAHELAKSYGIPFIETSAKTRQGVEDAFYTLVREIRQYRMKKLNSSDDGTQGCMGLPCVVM

| SMILES | NRAS/KRAS (ratio of KD value with respect to NRAS to KD value with respect to KRAS) [1] | HRAS/KRAS (ratio of KD value with respect to HRAS to KD value with respect to KRAS) [2] |
| --- | --- | --- |
| CCCCN1CC(=O)NC2(CCC2)C(=O)N(C)[C@@H](C2CCCC2)C(=O)N(C)[C@H](C(=O)N(C)C)CC(=O)N(C)[C@@H](CC)C(=O)N[C@@H]([C@@H](C)CC)C(=O)N(C)CC(=O)N(C)[C@H]2C/C=C\CCN(C2=O)[C@@H](Cc2ccc(C(F)(F)F)cc2)C(=O)N(C)CC(=O)N[C@@H](CCc2cc(F)c(C(F)(F)F)c(F)c2)C1=O [PP1142] | A (a compound having 10 or more and less than 20 is denoted as A) | A (a compound having 10 or more and less than 20 is denoted as A) |
| CC[C@H](C)[C@@H]1NC(=O)[C@H](CC)N(C)C(=O)C[C@@H](C(=O)N(C)C)N(C)C(=O)[C@H](C2CCCC2)N(C)C(=O)C2(CCC2)NC(=O)CN(CC)C(=O)[C@H](CCc2cc(F)c(C(F)(F)F)c(F)c2)NC(=O)CN(C)C(=O)[C@H](Cc2ccc(C(F)(F)F)cc2)N2CC/C=C\C[C@@H](C2=O)N(C)C(=O)CN(C)C1=O [PP1143] | A (a compound having 10 or more and less than 20 is denoted as A) | A (a compound having 10 or more and less than 20 is denoted as A) |
| CC[C@H](C)[C@@H]1NC(=O)[C@H](CC)N(C)C(=O)C[C@@H](C(=O)N(C)C)N(C)C(=O)[C@H](C2CCCC2)N(C)C(=O)C2(CCC2)NC(=O)[C@H](COC)N(C)C(=O)[C@H](CCc2cc(F)c(C(F)(F)F)c(F)c2)NC(=O)CN(C)C(=O)[C@H](Cc2ccc(C(F)(F)F)cc2)N2CC/C=C\C[C@@H](C2=O)N(C)C(=O)CN(C)C1=O [PP1145] | A (a compound having 10 or more and less than 20 is denoted as A) | B (a compound having 3 or more and less than 10 is denoted as B) |
| CC[C@H](C)[C@@H]1NC(=O)[C@H](CC)N(C)C(=O)C[C@@H](C(=O)N(C)C)N(C)C(=O)[C@H](C2CCCC2)N(C)C(=O)C2(CCC2)NC(=O)[C@H](C)N(C)C(=O)[C@H](CCc2cc(F)c(C(F)(F)F)c(F)c2)NC(=O)CN(C)C(=O)[C@H](Cc2ccc(C(F)(F)F)cc2)N2CC/C=C\C[C@@H](C2=O)N(C)C(=O)CN(C)C1=O [PP1146] | A (a compound having 10 or more and less than 20 is denoted as A) | B (a compound having 3 or more and less than 10 is denoted as B) |
| CC[C@H](C)[C@@H]1NC(=O)[C@H](CC)N(C)C(=O)C[C@@H](C(=O)N(C)C)N(C)C(=O)[C@H](C2CCCC2)N(C)C(=O)C2(CCC2)NC(=O)[C@H](COCCC(C)C)N(C)C(=O)[C@H](CCc2cc(F)c(C(F)(F)F)c(F)c2)NC(=O)CN(C)C(=O)[C@H](Cc2ccc(C(F)(F)F)cc2)N2CC/C=C\C[C@@H](C2=O)N(C)C(=O)CN(C)C1=O [PP1148] | A (a compound having 10 or more and less than 20 is denoted as A) | A (a compound having 10 or more and less than 20 is denoted as A) |
| CC[C@H](C)[C@@H]1NC(=O)[C@H](CC)N(C)C(=O)C[C@@H](C(=O)N(C)C)N(C)C(=O)[C@H](C2CCCC2)N(C)C(=O)C2(CCC2)NC(=O)[C@H](CC2CCCCC2)N(C)C(=O)[C@H](CCc2cc(F)c(C(F)(F)F)c(F)c2)NC(=O)CN(C)C(=O)[C@H](Cc2ccc(C(F)(F)F)cc2)N2CC/C=C\C[C@@H](C2=O)N(C)C(=O)CN(C)C1=O [PP1149] | A (a compound having 10 or more and less than 20 is denoted as A) | A (a compound having 10 or more and less than 20 is denoted as A) |
| CCCC[C@H]1C(=O)NC2(CCC2)C(=O)N(C)[C@@H](C2CCCC2)C(=O)N(C)[C@H](C(=O)N(C)C)CC(=O)N(C)[C@@H](CC)C(=O)N[C@@H]([C@@H](C)CC)C(=O)N(C)CC(=O)N(C)[C@H]2C/C=C\CCN(C2=O)[C@@H](Cc2ccc(C(F)(F)F)cc2)C(=O)N(C)CC(=O)N[C@@H](CCc2cc(F)c(C(F)(F)F)c(F)c2)C(=O)N1C [PP1150] | AA (a compound having 20 or more is denoted as AA) | A (a compound having 10 or more and less than 20 is denoted as A) |
| CC[C@H](C)[C@@H]1NC(=O)[C@H](CC(C)C)N(C)C(=O)C[C@@H](C(=O)N2C[C@@H](C)O[C@@H](C)C2)N(C)C(=O)[C@H](C2CCCC2)N(C)C(=O)C2(CCCC2)NC(=O)[C@@H]2CCCN2C(=O)[C@H](CCc2ccc(C(F)(F)F)c(Cl)c2)NC(=O)CN(C)C(=O)[C@H](Cc2ccc(F)cc2)N2CCCCC[C@@H](C2=O)N(C)C(=O)CN(C)C1=O [PP1151] | B (a compound having 3 or more and less than 10 is denoted as B) | B (a compound having 3 or more and less than 10 is denoted as B) |
| CCO[C@@H]1C[C@H]2C(=O)NC3(CCC3)C(=O)N(C)[C@@H](C3CCCC3)C(=O)N(C)[C@H](C(=O)N3C[C@@H](C)O[C@@H](C)C3)CC(=O)N(C)[C@@H](CC(C)C)C(=O)N[C@@H]([C@@H](C)CC)C(=O)N(C)CC(=O)N(C)[C@H]3CCCCCN(C3=O)[C@@H](Cc3ccc(F)cc3)C(=O)N(C)CC(=O)N[C@@H](CCc3ccc(C(F)(F)F)c(Cl)c3)C(=O)N2C1 [PP1153] | B (a compound having 3 or more and less than 10 is denoted as B) | B (a compound having 3 or more and less than 10 is denoted as B) |
| CCO[C@@H]1C[C@H]2C(=O)NC3(CCC3)C(=O)N(C)[C@@H](C3CCCC3)C(=O)N(C)[C@H](C(=O)N(C)C)CC(=O)N(C)[C@@H](Cc3ccccc3C#N)C(=O)N[C@@H]([C@@H](C)CC)C(=O)N(C)CC(=O)N(C)[C@H]3CCCCCN(C3=O)[C@@H](Cc3ccc(F)cc3)C(=O)N(C)CC(=O)N[C@@H](CCc3cc(F)c(C(F)(F)F)c(F)c3)C(=O)N2C1 [PP1155] | B (a compound having 3 or more and less than 10 is denoted as B) | B (a compound having 3 or more and less than 10 is denoted as B) |
| CCO[C@@H]1C[C@H]2C(=O)NC3(CCC3)C(=O)N(C)[C@@H](C3CCCC3)C(=O)N(C)[C@H](C(=O)N(C)C)CC(=O)N(C)[C@@H](Cc3cccc(C#N)c3)C(=O)N[C@@H]([C@@H](C)CC)C(=O)N(C)CC(=O)N(C)[C@H]3CCCCCN(C3=O)[C@@H](Cc3ccc(F)cc3)C(=O)N(C)CC(=O)N[C@@H](CCc3cc(F)c(C(F)(F)F)c(F)c3)C(=O)N2C1 [PP1156] | B (a compound having 3 or more and less than 10 is denoted as B) | B (a compound having 3 or more and less than 10 is denoted as B) |
| CCO[C@@H]1C[C@H]2C(=O)NC3(CCC3)C(=O)N(C)[C@@H](C3CCCC3)C(=O)N(C)[C@H](C(=O)N(C)C)CC(=O)N(C)[C@@H](Cc3ccc(C#N)cc3)C(=O)N[C@@H]([C@@H](C)CC)C(=O)N(C)CC(=O)N(C)[C@H]3CCCCCN(C3=O)[C@@H](Cc3ccc(F)cc3)C(=O)N(C)CC(=O)N[C@@H](CCc3cc(F)c(C(F)(F)F)c(F)c3)C(=O)N2C1 [PP1157] | B (a compound having 3 or more and less than 10 is denoted as B) | B (a compound having 3 or more and less than 10 is denoted as B) |
